Legend:
Type in all cases: cell-based
[1] = target: T1, Alpha 2A (Homo sapiens, UniProt P08913); assay: RSAT assay, alpha 2A receptor; conditions: ratio of maximal effect to that of standard agonist brimonidine
T1 construct: expressed in transfected cells; host or cells: NIH-3T3
T1 sequence (P08913 1-465): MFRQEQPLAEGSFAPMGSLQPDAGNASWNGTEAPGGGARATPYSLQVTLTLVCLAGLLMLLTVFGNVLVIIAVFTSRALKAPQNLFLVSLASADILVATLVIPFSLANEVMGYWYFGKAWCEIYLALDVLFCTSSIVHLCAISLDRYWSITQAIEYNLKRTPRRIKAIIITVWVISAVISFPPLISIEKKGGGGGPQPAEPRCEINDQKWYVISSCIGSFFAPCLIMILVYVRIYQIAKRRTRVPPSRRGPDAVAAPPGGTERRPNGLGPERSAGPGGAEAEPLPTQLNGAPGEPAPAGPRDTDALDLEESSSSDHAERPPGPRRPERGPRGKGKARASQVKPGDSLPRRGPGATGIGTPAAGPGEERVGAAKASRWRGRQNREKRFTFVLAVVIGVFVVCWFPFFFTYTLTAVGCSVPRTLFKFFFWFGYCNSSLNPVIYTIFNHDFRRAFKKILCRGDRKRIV
Protocol: (§1) The RSAT assay measures a receptor-mediated loss of contact inhibition that results in selective proliferation of receptor-containing cells in a mixed population of confluent cells. The increase in cell number is assessed with an appropriate transfected marker gene such as -galactosidase, the activity of which can be easily measured in a 96-well format. Receptors that activate the G protein, Gq, elicit this response. Alpha2 receptors, which normally couple to Gi, activate the RSAT response when coexpressed with a hybrid Gq protein that has a Gi receptor recognition domain, called Gq/i5.
(§2) NIH-3T3 cells are plated at a density of 2×10^6 cells in 15 cm dishes and maintained in Dulbecco's modified Eagle's medium supplemented with 10% calf serum. […] After washing with phosphate-buffered saline, β-galactosidase enzyme activity is determined by adding 200 μl of the chromogenic substrate (consisting of 3.5 mM o-nitrophenyl-β-D-galactopyranoside and 0.5% nonidet P-40 in phosphate buffered saline), incubating overnight at 30° C. and measuring optical density at 420 nm. The absorbance is a measure of enzyme activity, which depends on cell number and reflects a receptor-mediated cell proliferation. The efficacy or intrinsic activity is calculated as a ratio of the maximal effect of the drug to the maximal effect of a standard full agonist for each receptor subtype. […]

[2] = target: T2, Alpha 1A (Homo sapiens, UniProt P35348); assay: RSAT assay, alpha 1A receptor
T2 construct: expressed in transfected cells; host or cells: NIH-3T3
T2 sequence (P35348 1-466): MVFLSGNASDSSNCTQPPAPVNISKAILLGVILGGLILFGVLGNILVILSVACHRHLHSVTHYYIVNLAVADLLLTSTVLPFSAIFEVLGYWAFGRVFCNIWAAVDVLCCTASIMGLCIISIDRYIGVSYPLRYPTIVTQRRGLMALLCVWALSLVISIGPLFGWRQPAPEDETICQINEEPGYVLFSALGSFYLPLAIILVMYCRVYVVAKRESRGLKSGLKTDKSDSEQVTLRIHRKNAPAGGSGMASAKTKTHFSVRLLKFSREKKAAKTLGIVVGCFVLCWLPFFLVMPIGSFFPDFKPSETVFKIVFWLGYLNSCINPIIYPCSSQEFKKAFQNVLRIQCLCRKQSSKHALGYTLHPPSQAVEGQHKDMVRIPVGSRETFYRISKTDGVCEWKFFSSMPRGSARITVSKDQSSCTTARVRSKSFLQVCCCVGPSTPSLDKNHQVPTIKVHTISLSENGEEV
Protocol: as §1, §2

[3] = target: T3, Alpha 2B (Homo sapiens, UniProt P18089); assay: RSAT assay, alpha 2B receptor; conditions: for Alpha 2B (IA) intrinsic activity: RSAT, ratio of maximal effect to that of standard agonist brimonidine
T3 construct: expressed in transfected cells; host or cells: NIH-3T3
T3 sequence (P18089 1-450): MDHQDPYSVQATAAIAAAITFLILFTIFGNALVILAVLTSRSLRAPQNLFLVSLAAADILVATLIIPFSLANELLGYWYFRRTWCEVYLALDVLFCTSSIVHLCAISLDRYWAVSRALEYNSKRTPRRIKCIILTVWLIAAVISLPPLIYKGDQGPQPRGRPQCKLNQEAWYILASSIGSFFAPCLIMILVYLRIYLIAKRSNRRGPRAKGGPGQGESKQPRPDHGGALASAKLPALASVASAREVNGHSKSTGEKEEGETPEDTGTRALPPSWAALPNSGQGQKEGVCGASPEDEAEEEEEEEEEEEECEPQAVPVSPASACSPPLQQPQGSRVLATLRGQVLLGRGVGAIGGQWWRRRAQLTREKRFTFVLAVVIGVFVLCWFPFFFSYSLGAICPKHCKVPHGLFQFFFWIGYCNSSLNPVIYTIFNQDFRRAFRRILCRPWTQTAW
Protocol: as §1
NIH-3T3 cells are plated at a density of 2×10^6 cells in 15 cm dishes and maintained in Dulbecco's modified Eagle's medium supplemented with 10% calf serum. One day later, cells are cotransfected by calcium phosphate precipitation with mammalian expression plasmids encoding p-SV-1-galactosidase (5-10 μg), receptor (1-2 μg) and G protein (1-2 μg). 40 μg salmon sperm DNA may also be included in the transfection mixture. Fresh media is added on the following day and 1-2 days later, cells are harvested and frozen in 50 assay aliquots. Cells are thawed and 100 μl added to 100 μl aliquots of various concentrations of drugs in triplicate in 96-well dishes. Incubations continue 72-96 hr at 37° C. After washing with phosphate-buffered saline, β-galactosidase enzyme activity is determined by adding 200 μl of the chromogenic substrate (consisting of 3.5 mM o-nitrophenyl-β-D-galactopyranoside and 0.5% nonidet P-40 in phosphate buffered saline), incubating overnight at 30° C. and measuring optical density at 420 nm. The absorbance is a measure of enzyme activity, which depends on cell number and reflects a receptor-mediated cell proliferation. The efficacy or intrinsic activity is calculated as a ratio of the maximal effect of the drug to the maximal effect of a standard full agonist for each receptor subtype. Brimonidine, also called UK14304, the chemical structure of which is shown below, is used as the standard agonist for the alpha2A, alpha2B and alpha2C receptors. The EC50 is the concentration at which the drug effect is half of its maximal effect.
EC50 values are nanomolar. NA stands for “not active” at concentrations less than 10 micromolar. IA stands for “intrinsic activity.”

[4] = target: T4, Alpha 2C (Homo sapiens, UniProt P18825); assay: RSAT assay, alpha 2C receptor
T4 construct: expressed in transfected cells; host or cells: NIH-3T3
T4 sequence (P18825 1-462): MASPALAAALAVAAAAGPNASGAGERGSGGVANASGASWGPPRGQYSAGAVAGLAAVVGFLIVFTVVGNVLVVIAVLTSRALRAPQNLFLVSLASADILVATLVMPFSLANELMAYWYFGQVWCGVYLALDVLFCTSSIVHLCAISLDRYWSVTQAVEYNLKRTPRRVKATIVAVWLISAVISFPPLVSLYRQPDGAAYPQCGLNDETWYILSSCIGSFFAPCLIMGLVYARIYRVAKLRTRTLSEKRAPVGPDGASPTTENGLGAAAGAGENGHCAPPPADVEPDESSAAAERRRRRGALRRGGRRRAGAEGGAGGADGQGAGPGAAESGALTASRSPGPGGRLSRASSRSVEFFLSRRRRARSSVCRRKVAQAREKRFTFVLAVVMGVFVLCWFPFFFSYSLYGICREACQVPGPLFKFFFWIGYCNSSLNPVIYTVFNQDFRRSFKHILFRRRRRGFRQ
Protocol: as §1, §2

Q: For Cc1[nH]cnc1Cc1ccc2cccnc2c1C [8-methyl-7-((5-methyl-1H-imidazol-4-yl)methyl)quinoline], which “Alpha 2A (IA) intrinsic activity” value [1] is on record?
A: 0.43

Q: Which results are given for Cc1[nH]cnc1Cc1cccc2cccnc12 [8-((5-methyl-1H-imidazol-4-yl)methyl)quinoline]?
A: EC50 [2]: 1.73 µM; Alpha 1A (IA) intrinsic activity ([2]; RSAT, ratio of maximal effect of drug to maximal effect of standard full agonist): 0.75; EC50 [3]: 0.117 µM; Alpha 2B (IA) intrinsic activity [3]: 0.70

Q: What does the source list for Cc1[nH]cnc1C(C)c1cccc2cccnc12 (stereo not drawn) [8-(1-(5-methyl-1H-imidazol-4-yl)ethyl)quinoline]?
A: EC50 [3]: 0.03 µM; Alpha 2B (IA) intrinsic activity [3]: 0.70; EC50 [4]: 3.11 µM; Alpha 2C (IA) intrinsic activity ([4]; RSAT, ratio of maximal effect to that of standard agonist brimonidine): 0.32
